Source: US10272095B2 (GlaxoSmithKline Intellectual Property Development Limited, priority 2015, dated 2019)
Structures can show the parent of a compound that is named as a salt. Where two headings read alike, the source gives them in different places.

Tested on: NQO1 specific enzyme activity in BEAS-2B cells
Assay: BEAS-2B NQO1 MTT assay
Type: cell-based
Conditions: NQO1 specific enzyme activity induction in BEAS-2B cells, 48 hours, read-out: EC50
Description: NAD(P)H:quinone oxidoreductase 1 (NQO1), also called DT diaphorase, is a homodimeric FAD-containing enzyme that catalyzes obligatory NAD(P)H-dependent two-electron reductions of quinones and protects cells against the toxic and neoplastic effects of free radicals and reactive oxygen species arising from one-electron reductions. The transcription of NQO1 is finely regulated by NRF2, and thus NQO1 activity is a good marker for NRF2 activation. On day one, frozen BEAS-2B cells (ATCC) are thawed in a water bath, counted, and re-suspended at a concentration of 250,000 cells/mL. Fifty microliters of cells are plated in 384 well black clear-bottomed plates. Plates are incubated at 37° C., 5% CO2 overnight. On day two, plates are centrifuged and 50 nL of compound or controls are added to the cells. Plates are then incubated at 37° C., 5% CO2 for 48 hours. On day four, medium is aspirated from the plate and crude cell lysates are made by adding 13 uL of 1× Cell Signaling Technologies lysis buffer with 1 Complete, Mini, EDTA-free Protease Inhibitor Tablet (Roche) for each 10 mL of lysis buffer. After lysis plates are incubated for 20 minutes at room temperature. Two microliters of lysate are removed for use in Cell Titer Glo assay (Promega) and MTT cocktail is prepared (Prochaska et. al. 1998) for measurement of NQO1 activity. Fifty microliters of MTT cocktail is added to each well, plate is centrifuged, and analyzed on an Envision plate reader (Perkin Elmer) using Absorbance 570 nm label for 30 minutes. Product formation is measured kinetically and the pEC50 of NQO1 specific activity induction is calculated by plotting the change in absorbance (Delta OD/min) versus the log of compound concentration followed by 3-parameter fitting.
EC50s<1 nM (+++++), EC50s 10 nM-1 nM (++++), EC50s 10-100 nM (+++), EC50s 100 nM-1 uM (++), EC50s 1 uM-10 uM (+), EC50s>10 uM (−), or were not determined (ND).

| Structure (SMILES) | EC50 (Homo sapiens, BEAS-2B, 48 h) [µM] | EC50 [µM] |
| --- | --- | --- |
| CC[C@@H]1CN(C2CCc3ccc(C(CCc4cn(CC)nn4)C(C)(C)C(=O)O)cc32)Cc2cnccc2O1 (stereo partly drawn) [Example 87, 5-(1-Ethyl-1H-1,2,3-triazol-4-yl)-3-(3-((R)-2-ethyl-2,3-dihydropyrido[3,4-f][1,4]oxazepin-4(5H)-yl)-2,3-dihydro-1H-inden-5-yl)-2,2-dimethylpentanoic Acid] | 0.01 to 0.1 |  |
| CC[C@@H]1CN([C@@H]2CCc3ccc(C(CC(=O)O)c4ccc5c(nnn5C)c4C)cc32)Cc2ccccc2O1 (relative stereo) [Example 84, rel-(R)-3-(1,4-Dimethyl-1H-benzo[d][1,2,3]triazol-5-yl)-3-(rel-(R)-3-((R)-2-ethyl-2,3-dihydrobenzo[f][1,4]oxazepin-4(5H)-yl)-2,3-dihydro-1H-inden-5-yl)propanoic acid] | 1 to 10 |  |
| COc1cc(C(CC(=O)O)c2ccc3c(c2)C(N2CCOc4ccccc4C2)CC3)c(C)c2nnn(C)c12 (stereo not drawn) [Example 52, 3-(3-(2,3-Dihydrobenzo[f][1,4]oxazepin-4(5H)-yl)-2,3-dihydro-1H-inden-5-yl)-3-(7-methoxy-1,4-dimethyl-1H-benzo[d][1,2,3]triazol-5-yl)propanoic Acid, Formic Acid Salt] | 0.01 to 0.1 |  |
| CC[C@@H]1CN(C2CCc3ccc(C(CC(=O)O)c4ccc5c(nnn5C)c4C)cc32)Cc2ccccc2O1 (stereo partly drawn) [Example 50, 3-(1,4-Dimethyl-1H-benzo[d][1,2,3]triazol-5-yl)-3-(3-((R)-2-ethyl-2,3-dihydrobenzo[f][1,4]oxazepin-4(5H)-yl)-2,3-dihydro-1H-inden-5-yl)propanoic Acid, Formic Acid Salt] | 0.01 to 0.1 |  |
| Cc1c(C(CC(=O)O)c2ccc3c(c2)C(N2Cc4ccc(C#N)cc4OC(C)(C)C2)CC3)ccc2c1nnn2C (stereo not drawn) [Example 35, 3-(3-(8-Cyano-2,2-dimethyl-2,3-dihydrobenzo[f][1,4]oxazepin-4(5H)-yl)-2,3-dihydro-1H-inden-5-yl)-3-(1,4-dimethyl-1H-benzo[d][1,2,3]triazol-5-yl)propanoic Acid, Formic Acid Salt] | 0.001 to 0.01 |  |
| COc1cc(C(CC(=O)O)c2ccc3c(c2)C(N2Cc4cnccc4OC(C)(C)C2)CC3)cc2nnn(C)c12 (stereo not drawn) [Example 46, 3-(3-(2,2-Dimethyl-2,3-dihydropyrido[3,4-f][1,4]oxazepin-4(5H)-yl)-2,3-dihydro-1H-inden-5-yl)-3-(7-methoxy-1-methyl-1H-benzo[d][1,2,3]triazol-5-yl)propanoic Acid, Formic Acid Salt] | 0.01 to 0.1 |  |
| CC[C@@H]1CN([C@H]2CCc3ccc([C@@H](c4ccc5c(nnn5C)c4C)C(C)(C)C(=O)O)cc32)Cc2cnccc2O1 (relative stereo) [Example 72, rel-(S)-3-(1,4-Dimethyl-1H-benzo[d][1,2,3]triazol-5-yl)-3-(rel-(S)-3-((R)-2-ethyl-2,3-dihydropyrido[3,4-f][1,4]oxazepin-4(5H)-yl)-2,3-dihydro-1H-inden-5-yl)-2,2-dimethylpropanoic acid] |  | 0.001 to 0.01 |
| Cc1c([C@H](c2ccc3c(c2)[C@H](N2Cc4ccncc4OC(C)(C)C2)CC3)C(C)(C)C(=O)O)ccc2c1nnn2C (racemic) [Example 70, rac-(R)-3-(1,4-Dimethyl-1H-benzo[d][1,2,3]triazol-5-yl)-3-(rac-(S)-3-(2,2-dimethyl-2,3-dihydropyrido[4,3-f][1,4]oxazepin-4(5H)-yl)-2,3-dihydro-1H-inden-5-yl)-2,2-dimethylpropanoic acid, Trifluoroacetic acid salt] | 0.001 to 0.01 |  |
| Cc1c([C@H](c2ccc3c(c2)[C@@H](N2Cc4ncccc4OC(C)(C)C2)CC3)C(C)(C)C(=O)O)ccc2c1nnn2C (racemic) [Example 68, rac-(R)-3-(1,4-Dimethyl-1H-benzo[d][1,2,3]triazol-5-yl)-3-(rac-(R)-3-(2,2-dimethyl-2,3-dihydropyrido[2,3-f][1,4]oxazepin-4(5H)-yl)-2,3-dihydro-1H-inden-5-yl)-2,2-dimethylpropanoic acid] | 0.01 to 0.1 |  |
| Cc1c(C(CC(=O)O)c2ccc3c(c2)C(N2Cc4cnccc4OC(C)(C)C2)CC3)ccc2c1nnn2C (stereo not drawn) [Example 48, 3-(1,4-Dimethyl-1H-benzo[d][1,2,3]triazol-5-yl)-3-(3-(2,2-dimethyl-2,3-dihydropyrido[3,4-f][1,4]oxazepin-4(5H)-yl)-2,3-dihydro-1H-inden-5-yl)propanoic Acid, Formic Acid Salt] | 0.01 to 0.1 |  |
| Cc1c(C(CC(=O)O)c2ccc3c(c2)C2C(CCN2C(=O)Cc2ccccc2C#N)C3)ccc2c1nnn2C (stereo not drawn) [Example 12, 3-{1-[2-(2-Cyanophenyl)acetyl]-1H,2H,3H,3aH,4H,8bH-indeno[1,2-b]pyrrol-7-yl}-3-(1,4-dimethyl-1H-1,2,3-benzotriazol-5-yl)propanoic Acid] | 1 to 10 |  |
| Cc1c(C(c2ccc3c(c2)C(N2CCOc4ncccc4C2)CC3)C(C)(C)C(=O)O)ccc2c1nnn2C (stereo not drawn) [Example 54, 3-(3-(2,3-Dihydropyrido[3,2-f][1,4]oxazepin-4(5H)-yl)-2,3-dihydro-1H-inden-5-yl)-3-(1,4-dimethyl-1H-benzo[d][1,2,3]triazol-5-yl)-2,2-dimethylpropanoic Acid, Formic Acid Salt, Formic Acid Salt] | 0.1 to 1 |  |
| Cc1c(C(CC(=O)O)c2ccc3c(c2)C(N2Cc4ccccc4O[C@@H](C)C2)CC3)ccc2c1nnn2C (stereo partly drawn) [Example 56, 3-(1,4-Dimethyl-1H-benzo[d][1,2,3]triazol-5-yl)-3-(3-((S)-2-methyl-2,3-dihydrobenzo[f][1,4]oxazepin-4(5H)-yl)-2,3-dihydro-1H-inden-5-yl)propanoic Acid, Formic Acid Salt] | 0.1 to 1 |  |
| Cc1c(C(CC(=O)O)c2ccc3c(c2)C2C(CC(=O)N2CC2CCC4CCCCC4C2)C3)ccc2c1nnn2C (stereo not drawn) [Example 4, 3-[1-(Decahydronaphthalen-2-ylmethyl)-2-oxo-1H,2H,3H,3aH,4H,8bH-indeno[1,2-b]pyrrol-7-yl]-3-(1,4-dimethyl-1H-1,2,3-benzotriazol-5-yl)propanoic Acid] | 0.01 to 0.1 |  |
| Cc1c(C(CC(=O)O)c2ccc3c(c2)C2C(CCN2C(=O)Cc2ccccc2Cl)C3)ccc2c1nnn2C (stereo not drawn) [Example 11, 3-{1-[2-(2-Chlorophenyl)acetyl]-1H,2H,3H,3aH,4H,8bH-indeno[1,2-b]pyrrol-7-yl}-3-(1,4-dimethyl-1H-1,2,3-benzotriazol-5-yl)propanoic Acid] | 1 to 10 |  |
| COc1cc(C(CC(=O)O)c2ccc3c(c2)C(N2Cc4ccccc4OC(C)(C)C2)CC3)cc2nnn(C)c12 (stereo not drawn) [Example 43, 3-(3-(2,2-Dimethyl-2,3-dihydrobenzo[f][1,4]oxazepin-4(5H)-yl)-2,3-dihydro-1H-inden-5-yl)-3-(7-methoxy-1-methyl-1H-benzo[d][1,2,3]triazol-5-yl)propanoic Acid, Formate Salt] | 0.001 to 0.01 |  |
| Cc1c([C@@H](c2ccc3c(c2)[C@@H](N2Cc4ccccc4OC(C)(C)C2)CC3)C(C)(C)C(=O)O)ccc2c1nnn2C (stereo in doubt) [Example 80, rel-(R)-3-(1,4-Dimethyl-1H-benzo[d][1,2,3]triazol-5-yl)-3-(rel-(S)-3-(2,2-dimethyl-2,3-dihydrobenzo[f][1,4]oxazepin-4(5H)-yl)-2,3-dihydro-1H-inden-5-yl)-2,2-dimethylpropanoic acid] | 0.1 to 1 |  |
| Cc1c(C(CC(=O)O)c2ccc3c(c2)C2C(CCN2C(=O)C(C)c2ccccc2)C3)ccc2c1nnn2C (stereo not drawn) [Example 9, 3-(1,4-Dimethyl-1H-1,2,3-benzotriazol-5-yl)-3-[1-(2-phenylpropanoyl)-1H,2H,3H,3aH,4H,8bH-indeno[1,2-b]pyrrol-7-yl]propanoic Acid] | 1 to 10 |  |
| CC[C@@H]1CN(C2CCc3ccc(C(CC(=O)O)c4ccc5c(nnn5C)c4C)cc32)Cc2cnccc2O1 (stereo partly drawn) [Example 57, 3-(1,4-Dimethyl-1H-benzo[d][1,2,3]triazol-5-yl)-3-(3-((R)-2-ethyl-2,3-dihydropyrido[3,4-f][1,4]oxazepin-4(5H)-yl)-2,3-dihydro-1H-inden-5-yl)propanoic Acid, Formic Acid Salt] | 0.1 to 1 |  |
| Cc1c(C(CC(=O)O)c2ccc3c(c2)C(N2Cc4cccnc4OC(C)(C)C2)CC3)ccc2c1nnn2C (stereo not drawn) [Example 51] | 0.01 to 0.1 |  |
| COc1cc(C(CC(=O)O)c2ccc3c(c2)C(N2Cc4cnccc4OC(C)(C)C2)CC3)c(C)c2nnn(C)c12 (stereo not drawn) [Example 36, 3-(3-(2,2-Dimethyl-2,3-dihydropyrido[3,4-f][1,4]oxazepin-4(5H)-yl)-2,3-dihydro-1H-inden-5-yl)-3-(7-methoxy-1,4-dimethyl-1H-benzo[d][1,2,3]triazol-5-yl)propanoic Acid, Formic Acid Salt] | 0.001 to 0.01 |  |
